“Also recorded” adds a separate entry of the source.
Assays:
[1] = test system: focal adhesion proteins; experiment: Localization of focal adhesion proteins (fluorescent fusion proteins) in presence of Mb31; format: cell-based, Mouse; conditions: 10 µM Mb31, 30 min; value is the protein
Procedure: In order to investigate the kinetics of FAK displacement at focal adhesions a time series was performed. GFP-FAK MEFs were treated with 20 µM of Mb31 or Mb36 and fixed after different time points. […] Mb36 kinetic was slightly slower with FAK delocalization after 20 min. In addition, GFP-FAK MEFs were treated with increasing concentrations of Mb31 or Mb36 to determine the minimum concentration required to interfere with FAK localization. Untreated or solvent (DMSO) treated cells show the expected localization of FAK at focal adhesions. […] Already 2 µM of Mb31 were sufficient to induce FAK displacement. […] Due to the faster kinetic and lower IC50 compared to Mb36 further studies were mainly performed using Mb31. […] In contrast, vinculin localization and the focal adhesion localization of talin, α-actinin, and zyxin is not disturbed (Figure 5 and Table 1).
Mouse embryonic fibroblasts expressing the indicated proteins as fluorescent fusion proteins were incubated with 10 µM Mb31 or solvent alone for 30 min. Afterwards, the cells were fixed and the localization of the focal adhesion proteins was analyzed microscopically.

[2] = molecular target: T1, Kinase domain of human FAK (Homo sapiens, UniProt Q05397, P410G); experiment: ELISA-based in vitro kinase assay; format: biochemical; conditions: poly-Glu-Tyr substrate, 1 h at 30°C
T1 construct: Kinase domain of human FAK (aa 410-689, hFAK-KD) was expressed; 6xHis (N); made in house; host or cells: Sf9 insect cells (baculovirus, pVL1392)
T1 sequence (Q05397 410-689 P410G): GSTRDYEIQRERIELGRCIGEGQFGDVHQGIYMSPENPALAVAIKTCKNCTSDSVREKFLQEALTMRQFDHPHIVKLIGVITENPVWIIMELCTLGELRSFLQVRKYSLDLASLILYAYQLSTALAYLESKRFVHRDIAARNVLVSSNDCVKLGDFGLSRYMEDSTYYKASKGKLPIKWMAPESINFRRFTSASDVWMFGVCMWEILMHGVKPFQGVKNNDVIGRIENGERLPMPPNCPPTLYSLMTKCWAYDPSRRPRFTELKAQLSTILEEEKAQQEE
Procedure: Kinase domain of human FAK (aa 410-689, hFAK-KD) was expressed with an amino-terminal 6xHis-tag and a carboxy-terminal Nef epitope-tag. FAK residue 410 was changed from proline to glycine. Expression of the fusion protein was performed in Sf9 insect cells using the pVL1392 transfer vector and the BacuIoGold Transfection Kit (BD Biosciences, San Diego, USA). Cells were lysed in Sf9 lysis buffer (0.33% Tween20, 1 mM EDTA, 500 mM NaCl, 100 µM PMSF, 1 mM β-Mercaptoethanol in 25 mM TrisHCl, pH 7.5) for 20 min at 4°C. Subsequently, the lysate was cleared by centrifugation and hFAK-KD was purified from the soluble fraction under native conditions by FPLC using a HisTrapFFcrude 1 mL column (GE Healthcare, Munich, Germany)
A microtiter plate was coated with 2 µg/well of poly(Glu:Tyr) (4:1) copolymer (Sigma-Aldrich, Steinheim, Germany) as artificial FAK substrate and blocked with 2% BSA in PBS with 0.01% Tween20. Purified hFAK-KD together with 100 µM ATP were added in kinase buffer (125 mM NaCl, 48 mM MgCl2, 50 mM HEPES, pH 7.5) in presence of various concentrations of test compounds and incubated for 1 h at 30°C. The reaction was stopped by the addition of EDTA and wells were extensively washed with 0.05% Tween20 in PBS. Phosphorylated substrate was detected by monoclonal anti-phosphotyrosine antibody followed by peroxidasecoupled goat anti-mouse antibody. […] The absorbance was measured at 450 nm.

[3] = test system: FAK; experiment: Immunoblot of FAK and paxillin protein level and FAK Tyr397 phosphorylation; format: cell-based, mouse; conditions: serum-starved GFP-FAK MEFs, increasing concentrations, 30 min
Procedure: (§1) Image J was used to automatically quantify FAK-containing focal adhesions due to local maxima of fluorescence intensity in the GFP-channel (5 to 70 pixel). The number of cells was automatically counted in the Hoechst channel. To test reproducibility of the system 40 control wells were quantified wherein four positions for each well were imaged. […] GFP-FAK mouse embryonic fibroblasts were seeded on fibronectin and incubated for 1 h with the indicated concentrations of the small compounds, respectively. […] GFP-FAK mouse embryonic fibroblasts were seeded on fibronectin and serum-starved overnight. The indicated concentrations of Mb31 were applied for 30 min. Cells were lysed and analyzed for paxillin and FAK protein level as well as FAK Tyr397 phosphorylation. […] The purified kinase domain of FAK was incubated with increasing amounts of Mb31 for 1 h at 30°C together with poly-Glu-Tyr as a FAK substrate. […] Cell viability was assessed by MTT assay. […] Migration was recorded from cells that were cultured without serum (A), with serum (B) or with serum in the presence of 3 µM Mb31 (C). […] Mouse embryonic fibroblasts (MEFs) were transfected with talin-mCherry and talin dynamics analyzed in focal adhesions using fluorescence recovery after photobleaching (FRAP). […] (C) Wound closure was microscopically analyzed and evaluated using ImageJ software. […]

[4] = test system: talin; experiment: Talin-mCherry fluorescence recovery after photobleaching (FRAP); format: cell-based, mouse; conditions: 10 µM
Procedure: as §1

## O=[N+]([O-])C=Cc1cc(Br)cs1 [FootLocker 1, 4-bromo-2-(2-nitrovinyl)thiophene]
[1]
  Displaced from focal adhesions: Focal adhesion kinase (FAK) and Paxillin and Grb2 and CRKII
  No effect on localization: Talin; also recorded: α-actinin; also recorded: Vinculin; also recorded: Zyxin
[2]
  in vitro activity of purified FAK kinase domain (FAK substrate phosphorylation): not altered
[3]
  Y397 phosphorylation of FAK: not influenced
  degradation of FAK and paxillin (protein levels): Neither for FAK nor for paxillin was any degradation observed
[4]
  talin-associated fluorescence recovery at bleached focal adhesions: did not recover

Source: patent publication EP2982368A1, “Small molecule compounds displacing focal adhesion core components” (Universität Konstanz, priority 2014, dated 2016)
